Source: US11161839B2, “2-quinolone derived inhibitors of BCL6” (Cancer Research Technology Limited, priority 2017, dated 2021)

Target: human BCL6 BTB domain (Trx-6xHis-BCL6) (Homo sapiens (Human), UniProt P41182)
Experiment: HTRF in vitro assay (BCL6 BTB domain / BCOR-AF633 peptide)
Type: binding
Details: for IC50: read-out: HTRF pIC50 (converted)
[1] = further generated data (Table 1b), 1 nM Trx-6xHis-BCL6, 0.5 nM anti-6xHis-Terbium cryptate
[2] = initially generated data (Table 1a), 10 nM Trx-6xHis-BCL6, 1 nM anti-6xHis-Terbium cryptate

Experimental: The % inhibition at each concentration was calculated by normalising FRET ratio to the appropriate high (DMSO with all reagents) and low (DMSO without BCL6) controls.

`CC(Nc1cc(=O)n(C)c2ccc(Nc3ncnc(Cl)c3Cl)cc12)c1ncccn1` (stereo not shown) [Example 19e, 6-((5,6-dichloropyrimidin-4-yl)amino)-1-methyl-4-((1-(pyrimidin-2-yl)ethyl)amino)quinolin-2(1H)-one] was tested, and the “HTRF pIC50” value [1] was 6.05.
`CC(Nc1nc(=O)n(C)c2ccc(Nc3nc(N4C[C@H](C)C[C@H](C)C4)ncc3Cl)cc12)c1ncccn1` (stereo partly drawn) [Example 12e, 6-((5-chloro-2-((3R,5S)-3,5-dimethylpiperidin-1-yl)pyrimidin-4-yl)amino)-1-methyl-4-((1-(pyrimidin-2-yl)ethyl)amino)quinazolin-2(1H)-one:formic acid (1:1)] was tested, and the “HTRF pIC50” value [1] was 6.58.
In the case of `Cc1cc(C)n(-c2ncc(Cl)c(Nc3ccc4c(c3)c(NC(C)c3ncccn3)cc(=O)n4C)n2)n1` (stereo not shown) [Example 14f, 6-((5-chloro-2-(3,5-dimethyl-1H-pyrazol-1-yl)pyrimidin-4-yl)amino)-1-methyl-4-((1-(pyrimidin-2-yl)ethyl)amino)quinolin-2(1H)-one], the “HTRF pIC50” value [1] is reported as 6.49.
For `CC(Nc1cc(=O)n(C)c2ccc(Nc3ccnc(Cl)c3C#N)cc12)c1cc[nH]n1` (stereo not shown) [Example 1t, 2-chloro-4-[[1-methyl-2-oxo-4-[1-(1H-pyrazol-3-yl)ethylamino]-6-quinolyl]amino]pyridine-3-carbonitrile], the “HTRF pIC50” value [1] was 5.84 and the “HTRF pIC50” value [2] was 6.00.
`Cn1c(=O)cc(NCCF)c2cc(Nc3cc(C(=O)O)nc(Cl)c3C#N)ccc21` [Example 9c, 6-chloro-5-cyano-4-((4-((2-fluoroethyl)amino)-1-methyl-2-oxo-1,2-dihydroquinolin-6-yl)amino)picolinic acid] was tested, and the “HTRF pIC50” value [1] was 6.05.
`CC(Nc1cc(=O)n(C)c2ncc(Nc3nc(N4CCC(F)(F)CC4)ncc3Cl)cc12)c1ncccn1` (stereo not shown) [Example 17b, 6-((5-chloro-2-(4,4-difluoropiperidin-1-yl)pyrimidin-4-yl)amino)-1-methyl-4-((1-(pyrimidin-2-yl)ethyl)amino)-4,/- naphthyridin-2(1H)-one] was tested, and the “HTRF pIC50” value [1] was 6.11.
`CC(Nc1cc(=O)n(CC2CCCCC2)c2ccc(Nc3ccnc(Cl)c3C#N)cc12)c1ncccn1` (stereo not shown) [Example 10v, 2-chloro-4-((1-(cyclohexylmethyl)-2-oxo-4-((1-(pyrimidin-2-yl)ethyl)amino)-1,2-dihydroquinolin-6-yl)amino)nicotinonitrile] was tested, and the “HTRF pIC50” value [1] was 6.17.
`C[C@@H](Nc1cc(=O)n(C)c2ccc(Nc3ccnc(Cl)c3C#N)cc12)C(=O)NCCc1cnn(C)c1` [Example 3m, (R)-2-((6-((2-Chloro-3-cyanopyridin-4-yl)amino)-1-methyl-2-oxo-1,2-dihydroquinolin-4-yl)amino)-N-(2-(1-methyl-1H-pyrazol-4-yl)ethyl)propanamide] was tested, and the “HTRF pIC50” value [2] was 6.06.
`C#CC1(Nc2cc(=O)n(C)c3ccc(Nc4cc(C(=O)O)nc(Cl)c4C#N)cc23)CC1` [Example 9h, 6-chloro-5-cyano-4-((4-((1-ethynylcyclopropyl)amino)-1-methyl-2-oxo-1,2-dihydroquinolin-6-yl)amino)picolinic acid] was tested, and the “HTRF pIC50” value [1] was 6.77.
With `Cc1n[nH]c(C(C)Nc2cc(=O)n(C)c3ccc(Nc4ccnc(Cl)c4C#N)cc23)n1` (stereo not shown) [Example 3c, 2-Chloro-4-((1-methyl-4-((1-(3-methyl-1H-1,2,4-triazol-5-yl)ethyl)amino)-2-oxo-1,2-dihydroquinolin-6-yl)amino)nicotinonitrile] the “HTRF pIC50” value [1] was 6.50 and the “HTRF pIC50” value [2] was 6.65.
`COCCOCC(C)Nc1cc(=O)n(C)c2ccc(Nc3ccnc(Cl)c3C#N)cc12` (stereo not shown) [Example 11g, 2-chloro-4-((4-((1-(2-methoxyethoxy)propan-2-yl)amino)-1-methyl-2-oxo-1,2-dihydroquinolin-6-yl)amino)nicotinonitrile] was tested, and the “HTRF pIC50” value [1] was 6.05.
In the case of `Cn1c(=O)cc(NC(C)(C)C)c2cc(Nc3cc(C(=O)O)nc(Cl)c3C#N)ccc21` [Example 9n, 4-((4-(tert-butylamino)-1-methyl-2-oxo-1,2-dihydroquinolin-6-yl)amino)-6-chloro-5-cyanopicolinic acid], the “HTRF pIC50” value [1] is reported as 6.84.
Molecule `CNC(=O)c1cc(Nc2ccc3c(c2)c(N[C@H]2CCC[C@H]2OC)cc(=O)n3C)c(C#N)c(Cl)n1` (racemic) [Example 19g, rac-6-chloro-5-cyano-4((4-(((1S,2R)-2-methoxycyclopentyl)amino)-1-methyl-2-oxo-1,2-dihydroquinolin-6-yl)amino)-N-methylpicolinamide] has an IC50 [1] of 851 nM.
For `COC1CCC(NC(=O)[C@@H](C)Nc2cc(=O)n(C)c3ccc(Nc4ccnc(Cl)c4C#N)cc23)CC1` (stereo partly drawn) [Example 3i, (R)-2-((6-((2-Chloro-3-cyanopyridin-4-yl)amino)-1-methyl-2-oxo-1,2-dihydroquinolin-4-yl)amino)-N-(4-methoxycyclohexyl)propanamide], the “HTRF pIC50” value [1] was 6.42 and the “HTRF pIC50” value [2] was 6.36.
`C[C@H](CO)Nc1cc(=O)n(C)c2ccc(Nc3ccnc(Cl)c3C#N)cc12` [Example 3j, (R)-2-chloro-4-((4-((1-hydroxypropan-2-yl)amino)-1-methyl-2-oxo-1,2-dihydroquinolin-6-yl)amino)nicotinonitrile] was tested, and the “HTRF pIC50” value [1] was 6.14 and the “HTRF pIC50” value [2] was 6.05.
In the case of `C#CCCNC(=O)[C@@H](C)Nc1cc(=O)n(C)c2ccc(Nc3ccnc(Cl)c3C#N)cc12` [Example 3f, (R)-N-(But-3-yn-1-yl)-2-((6-((2-chloro-3-cyanopyridin-4-yl)amino)-1-methyl-2-oxo-1,2-dihydroquinolin-4-yl)amino)propanamide], the “HTRF pIC50” value [1] is reported as 6.71 and the “HTRF pIC50” value [2] is reported as 6.48.
For `CC(Nc1cc(=O)n(C)c2ccc(Nc3nc(N4CCc5nn(C)cc5C4)ncc3Cl)cc12)c1ncccn1` (stereo not shown) [Example 17k, 6-((5-chloro-2-(2-methyl-2,4,6,7-tetrahydro-5H-pyrazolo[4,3-c]pyridin-5-yl)pyrimidin-4-yl)amino)-1-methyl-4-((1-(pyrimidin-2-yl)ethyl)amino)quinolin-2(1H)-one], the “HTRF pIC50” value [1] was 6.11.
For `CCNc1cc(=O)n(CCOCCOC)c2ccc(Nc3ccnc(Cl)c3C#N)cc12` [Example 1o, 2-chloro-4-[[4-(ethylamino)-1-[2-(2-methoxyethoxy)ethyl]-2-oxo-6-quinolyl]amino]pyridine-3-carbonitrile], the IC50 [1] was 708 nM.
With `Cc1nc(N2CCC(C(=O)N(C)C)CC2)nc(Nc2ccc3c(c2)c(NC(C)(C)c2ncccn2)cc(=O)n3C)c1Cl` [Example 16c, 1-(5-chloro-4-methyl-6-((1-methyl-2-oxo-4((2-(pyrimidin-2-yl)propan-2-yl)amino)-1,2-dihydroquinolin-6-yl)amino)pyrimidin-2-yl)-N,N-dimethylpiperidine-4-carboxamide] the “HTRF pIC50” value [1] was 6.36.
With `CCC(C)(C)Nc1cc(=O)n(C)c2ccc(Nc3cc(C(=O)O)nc(Cl)c3C#N)cc12` [Example 9o, 6-chloro-5-cyano-4-((1-methyl-2-oxo-4-(tert-pentylamino)-1,2-dihydroquinolin-6-yl)amino)picolinic acid] the “HTRF pIC50” value [1] was 6.66.
`Cn1c(=O)cc(NC2(CO)CC2)c2cc(Nc3cc(C(=O)O)nc(Cl)c3C#N)ccc21` [Example 9k, 6-chloro-5-cyano-4-((4-((1-(hydroxymethyl)cyclopropyl)amino)-1-methyl-2-oxo-1,2-dihydroquinolin-6-yl)amino)picolinic acid] was tested, and the “HTRF pIC50” value [1] was 6.35.
`C[C@@H](Nc1cc(=O)n(C)c2ncc(Nc3ccnc(Cl)c3Cl)cc12)C1CC1` [Example 6f, (R)-4-((1-cyclopropylethyl)amino)-6-((2,3-dichloropyridin-4-yl)amino)-1-methyl-1,8-naphthyridin-2(1H)-one] was tested, and the “HTRF pIC50” value [1] was 6.21.
For `CC[C@@H]1C[C@H]1Nc1cc(=O)n(C)c2ccc(Nc3cc(C(=O)O)nc(Cl)c3C#N)cc12` (racemic) [Example 9i, rac-6-chloro-5-cyano-4-((4-(((1R,2R)-2-ethylcyclopropyl)amino)-1-methyl-2-oxo-1,2-dihydroquinolin-6-yl)amino)picolinic acid], the IC50 [1] was 245 nM.
With `Cn1c(=O)cc(N[C@H]2C[C@H](O)C2)c2cc(Nc3ccnc(Cl)c3C#N)ccc21` [Example 1f, trans-2-chloro-4-[[4-[(3-hydroxycyclobutyl)amino]-1-methyl-2-oxo-6-quinolyl]amino]pyridine-3-carbonitrile] the “HTRF pIC50” value [1] was 6.27 and the “HTRF pIC50” value [2] was 6.37.
In the case of `Cn1c(=O)cc(NC(C)(C)c2ncccn2)c2cc(Nc3cc(C(=O)O)nc(Cl)c3C#N)ccc21` [Example 9f, 6-chloro-5-cyano-4-((1-methyl-2-oxo-4-((2-(pyrimidin-2-yl)propan-2-yl)amino)-1,2-dihydroquinolin-6-yl)amino)picolinic acid], the “HTRF pIC50” value [1] is reported as 7.65.
With `C[C@@H](Nc1cc(=O)n(C)c2ccc(Nc3ccnc(Cl)c3C#N)cc12)C(=O)NCCO` [Example 3b, (R)-2-((6-((2-chloro-3-cyanopyridin-4-yl)amino)-1-methyl-2-oxo-1,2-dihydroquinolin-4-yl)amino)-N-(2-hydroxyethyl)propanamide] the “HTRF pIC50” value [1] was 6.57 and the “HTRF pIC50” value [2] was 6.73.
In the case of `C[C@@H]1C[C@H](C)CN(c2ncc(Cl)c(Nc3ccc4c(c3)c(NC(C)(C)c3ncccn3)nc(=O)n4C)n2)C1` [Example 26g, 6-[[5-chloro-2-[(3R,5S)-3,5-dimethyl-1-piperidyl]pyrimidin-4-yl]amino-1-methyl-4-[(1-methyl-1-pyrimidin-2-yl)ethyl)amino]quinazolin-2-one:formic acid (1:1)], the “HTRF pIC50” value [1] is reported as 6.54.
With `CCNC(=O)C(C)(C)Nc1cc(=O)n(C)c2ccc(Nc3ccnc(Cl)c3C#N)cc12` [Example 3h, 2-((6-((2-Chloro-3-cyanopyridin-4-yl)amino)-1-methyl-2-oxo-1,2-dihydroquinolin-4-yl)amino)-N-ethyl-2-methylpropanamide] the “HTRF pIC50” value [1] was 6.41 and the “HTRF pIC50” value [2] was 6.40.
In the case of `COCC(C)(C)Nc1cc(=O)n(C)c2ccc(Nc3cc(C(=O)O)nc(Cl)c3C#N)cc12` [Example 9m, 6-chloro-5-cyano-4-((4-((1-methoxy-2-methylpropan-2-yl)amino)-1-methyl-2-oxo-1,2-dihydroquinolin-6-yl)amino)picolinic acid], the “HTRF pIC50” value [1] is reported as 7.01.
